Source: patent US7723467B2, “Antimicrobial compounds” (New England Medical Center Hospitals, Inc., priority 2000, dated 2010)
Read-outs that look alike come from different tables or passages of the source. Non-standard residues stand in square brackets, D forms with d. No end group written: not given here.

Columns and labels:
Type in all cases: cell-based
[1] = tested on: Staphylococcus aureus NCTC 4163
Description: (§1) The assays are standardized by using a predictable predetermined number of cells, and the lowest observed concentration of the agent that inhibits growth is defined as the minimum inhibitory concentration (MIC).
(§2) Antimicrobial activity, specifically antibacterial activity, was assayed using cells of each of Staphylococcus aureus NCTC 4163, Escherichia coli NCTC 8196, Pseudomonas aeruginosa NCTC 6749, Proteus vulgaris NCTC 4635, and Enterococcus faecalis ATCC 19212. To determine the minimum inhibitory concentration (MIC), the microdilution broth method, well-known to one of ordinary skill in the art of microbiology, was used. Cells of each bacterial strain were collected in the logarithmic phase of growth, and resuspended in nutrient broth. The concentration of colony-forming units (CFU) per milliliter was quantified by measuring absorption of light at 600 nm (A600).
(§3) Peptide samples were dissolved in nutrient broth (pH 7.0) and diluted serially. The sample solution (100 μl) was mixed with the diluted bacterial suspension (100 μl). Mixtures containing 105 bacterial CFU, and from 1% to 0.003% of test peptides, were incubated for 24 h at 37° C. […] The indolicidin antibacterial property with cells of S. aureus was used as a positive control reference.

[2] = tested on: Escherichia coli NCTC 8196
Description: as §1, §2, §3

[3] = tested on: Enterococcus faecalis ATCC 19212
Description: as §1, §2, §3

[4] = tested on: Proteus vulgaris NCTC 4635
Description: as §1, §2, §3

[5] = tested on: Pseudomonas aeruginosa NCTC 6749
Description: as §1, §2, §3

[6] = tested on: Candida albicans NCTC 10231
Description: Anti-fungal activity is similarly assayed, using log phase vegetative fungal cells.
(§4) Antifungal activity was assayed using Candida albicans NCTC 10231 as a target fungus. Candida cells in the logarithmic phase of growth were suspended in dextrose broth medium at a density of 10^5 CFU/ml. A mixture of the sample solution (100 μl) and the fungal suspension (100 μl) was incubated for 24 h at 37° C.

[7] = tested on: microorganisms tested; assay: Antimicrobial activity across the microorganisms tested; conditions: compared with SP
Description: as §2, §3, §4

[8] = tested on: microorganism; assay: Mixing experiments of SP with SP antagonist
[9] = 100% inhibition of growth, 24 h at 37° C., nutrient broth pH 7.0
[10] = dextrose broth, 24 h at 37° C., turbidity

Row | Substance | Minimal Inhibitory Concentration MIC (%) S. aureus [1, 9] [%] | Minimal Inhibitory Concentration MIC (%) E. coli [2, 9] [%] | Minimal Inhibitory Concentration MIC (%) E. faecalis [3, 9] [%] | Minimal Inhibitory Concentration MIC (%) P. vulgaris [4, 9] [%] | Minimal Inhibitory Concentration MIC (%) P. aeruginosa [5, 9] [%] | potency against C. albicans relative to SP or bradykinin [6] | activity compared with indolicidin ([6]; cells of C. albicans) | Minimal Inhibitory Concentration MIC (%) C. albicans [6, 10] [%] | MIC fold higher (weaker potency) on the other bacteria tested [7] | antimicrobial potency compared with indolicidin ([1]; cells of S. aureus) | antifungal properties against C. albicans [6] | blocking of the antimicrobial effect by the presence of SP antagonist [8] | Minimal Inhibitory Concentration MIC (%) S. aureus ([1]; NCTC 4163, 24 h, pH 7) [%] | Minimal Inhibitory Concentration MIC (%) E. coli ([2]; NCTC 8196, 24 h, pH 7) [%] | Minimal Inhibitory Concentration MIC (%) E. faecalis ([3]; ATCC 19212, 24 h, pH 7) [%] | Minimal Inhibitory Concentration MIC (%) P. vulgaris ([4]; NCTC 4635, 24 h, pH 7) [%] | Minimal Inhibitory Concentration MIC (%) P. aeruginosa ([5]; NCTC 6749, 24 h, pH 7) [%] | Minimal Inhibitory Concentration MIC (%) C. albicans ([6]; NCTC 10231, 24 h) [%]
1 | Arg-D-Pro-Lys-Pro-Gln-Gln-D-Trp-Phe-D-Trp-Leu-MetNH2 (R[dP]KPQQ[dW]F[dW]LM-NH2; N-terminus assumed; SMILES CSCC[C@H](NC(=O)[C@H](CC(C)C)NC(=O)[C@@H](Cc1c[nH]c2ccccc12)NC(=O)[C@H](Cc1ccccc1)NC(=O)[C@@H](Cc1c[nH]c2ccccc12)NC(=O)[C@H](CCC(N)=O)NC(=O)[C@H](CCC(N)=O)NC(=O)[C@@H]1CCCN1C(=O)[C@H](CCCCN)NC(=O)[C@H]1CCCN1C(=O)[C@@H](N)CCCNC(=N)N)C(N)=O; listed as Homo sapiens) [SEQ ID NO: 2] | 0.13 | 0.13 | 0.13 | 0.13 | 0.13 | approximately 10 times | comparable to that of indolicidin | 0.03 | 10- to 20 fold |  |  |  |  |  |  |  |  | 
2 | Arg-Pro-Lys-Pro-Gln-Gln-Phe-Phe-Gly-Leu-MetNH2 [SEQ ID NO: 1] | 0.007 | 0.06 | 0.13 | 0.13 | 0.13 |  |  | 0.25 |  | equally potent to indolicidin | found to have antifungal properties | not to be blocked |  |  |  |  |  | 
3 | Ile-Leu-Pro-Trp-Lys-Trp-Pro-Trp-Trp-Pro-Trp-Arg-Arg-NH2 (ILPWKWPWWPWRR-NH2; listed as Homo sapiens) [Indolicidin, reference compound] | 0.003 | 0.007 |  |  |  |  |  | 0.015 |  |  |  |  |  |  |  |  |  | 
4 | RPPGFSPFR [Bradykinin, reference compound] |  |  |  |  |  |  |  |  |  |  |  |  | 0.5 | 0.5 | >1 | 0.5 | 1.0 | 0.25
